Here are results for 21 compounds from ChEMBL document CHEMBL1148534, “p38 MAP kinase inhibitors: metabolically stabilized piperidine-substituted quinolinones and naphthyridinones” (Bioorg Med Chem Lett, 2006).

Data set [1] is described as follows: Plasma clearance in rat. Type of data set: ADME, organism-based.
Data set [2] in a line: Oral bioavailability in rat. Type of data set: ADME, organism-based. Particulars: in vivo.
A short description of data set [3]: Half life in rhesus monkey, iv. Type of data set: ADME, organism-based, Macaca mulatta. The following applies: in vivo.
Data set [4] can be described thus: Volume of distribution in rhesus monkey. The following applies: in vivo, read-out: Vdss. Format: ADME, organism-based, Macaca mulatta.
Data set [5] is described as follows: Oral bioavailability in rhesus monkey. Format: ADME, organism-based, Macaca mulatta. The following applies: in vivo.
Data set [6] in a line: Plasma clearance in rhesus monkey. Format: ADME, organism-based, Macaca mulatta.
Data set [7] concerns the target T1, Mitogen-activated protein kinase 14 (Homo sapiens, UniProt Q16539). Nature of the data set: Inhibition of P38 alpha MAPK.
For data set [8], the target named is T1, Mitogen-activated protein kinase 14. Briefly: Inhibition of TNF alpha release in THP1 cells. Type of data set: functional, cell-based, THP-1.
The target is the same in data set [9]. Nature of the data set: Inhibition of LPS stimulated TNF alpha release in whole blood. Type of data set: functional, tissue-based.
Data set [10] in a line: Volume of distribution in rat. Format: ADME, organism-based. The following applies: in vivo, read-out: Vdss.
Data set [11] can be described thus: Half life in rat, iv. Format: ADME, organism-based. The following applies: in vivo.
A short description of data set [12]: Half life in dog, iv. Format: ADME, organism-based, Canis lupus familiaris. The following applies: in vivo.
Data set [13] is described as follows: Volume of distribution in dog. Format: ADME, organism-based, Canis lupus familiaris. Particulars: in vivo, read-out: Vdss.
Data set [14] in a line: Plasma clearance in dog. Type of data set: ADME, organism-based, Canis lupus familiaris.
The nature of data set [15]: Oral bioavailability in dog. Format: ADME, organism-based, Canis lupus familiaris. The following applies: in vivo.

T1 sequence (Q16539 whole entry): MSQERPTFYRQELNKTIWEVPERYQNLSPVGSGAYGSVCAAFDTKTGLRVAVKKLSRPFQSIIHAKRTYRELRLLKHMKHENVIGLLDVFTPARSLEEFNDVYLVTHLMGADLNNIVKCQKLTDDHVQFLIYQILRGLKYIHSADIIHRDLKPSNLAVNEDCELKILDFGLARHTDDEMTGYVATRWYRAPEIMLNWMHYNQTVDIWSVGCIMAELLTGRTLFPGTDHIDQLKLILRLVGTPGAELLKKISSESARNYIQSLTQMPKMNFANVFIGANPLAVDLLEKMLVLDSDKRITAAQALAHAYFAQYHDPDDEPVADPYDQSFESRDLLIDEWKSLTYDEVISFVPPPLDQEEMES

Regarding `CC(C)(C)N1CCC(c2cc3c(ccc(=O)n3-c3c(Cl)cccc3Cl)c(-c3ccc(F)cc3Cl)n2)CC1`, the clearance in [1] amounted to 39.6 mL/min/kg; in [6], 47.5 mL/min/kg. Besides, the figures for the bioavailability in data set [2] and in data set [5] were 67.3% and 33%, respectively. Further, the half-life in data set [3] was 5.32 h; in data set [11] it was 3.69 h. Also, the Vd in [4] was determined as 22.1 L/kg; in [10], 11.4 L/kg. The IC50 was found to be 0.38 nM in data set [7], 1.6 nM in data set [8] and 5.3 nM in [9].

For the compound `COC(=O)C(C)N1CCC(c2cc(-c3ccc(F)cc3Cl)c3ccc(=O)n(-c4c(Cl)cccc4Cl)c3c2)CC1` (stereo not given), the IC50 in [7] was 8.1 nM; in [8] it was 1.3 nM; in [9] it was 28 nM.

For the compound `CC(C)(C)N1CCC(Oc2cc(-c3ccc(F)cc3F)c3ccc(=O)n(-c4c(Cl)cccc4Cl)c3c2)CC1`, the half-inhibitory concentration (IC50) came to 1.87 nM in [7] and 0.77 nM in data set [8].

Take `CC(C)(C)N1CCC(c2cc(-c3ccc(F)cc3Cl)c3ccc(=O)n(-c4c(F)cccc4F)c3c2)CC1`: the values for the clearance in [1] and in data set [6] were 18.5 mL/min/kg and 35.1 mL/min/kg, respectively. Besides, the bioavailability came out at 57% in data set [2] and 31.5% in [5]. Moreover, the values for the half-life in data set [3] and in [11] were 9.55 h and 9.96 h, respectively. Moreover, the Vd in data set [4] is 28.6 L/kg; in data set [10], 3.77 L/kg. For the same compound, the results for the IC50 in data set [7], in data set [8] and in data set [9] were 0.3 nM, 0.42 nM and 1 nM, respectively.

Compound `C[C@@H](C(=O)O)N1CCC(c2cc(-c3ccc(F)cc3Cl)c3ccc(=O)n(-c4c(Cl)cccc4Cl)c3c2)CC1` gave a clearance in [1] of 59 mL/min/kg. The compound further showed a bioavailability in [2] of 0.11%. Also, the IC50 in data set [7] was 1.3 nM; in data set [8], 3.2 nM; in data set [9], 28 nM. The Vd in [10] was 0.7 L/kg. Besides, the half-life in data set [11] is 0.44 h.

As for `CC(C)(C)N1CC=C(c2cc(-c3ccc(F)cc3Cl)c3ccc(=O)n(-c4c(Cl)cccc4Cl)c3c2)CC1`, the IC50 in data set [7] turned out to be 1.15 nM; in data set [8] it was 0.74 nM; in data set [9], 50.8 nM.

In the case of `CC(C)(C)N1CCC(c2cc3c(ccc(=O)n3-c3c(Cl)cccc3Cl)c(-c3ccc(F)cc3F)n2)CC1`, the clearance in [1] is 32.3 mL/min/kg; in data set [14], 20.5 mL/min/kg; in [6], 41.5 mL/min/kg. Also, the bioavailability in [2] came to 62%; in [15], 99.3%; in [5], 23%. The half-life in data set [12] was 15.5 h; in data set [3] it was 6.5 h; in data set [11] it was 9.05 h. Moreover, the Vd in data set [13] worked out at 23.8 L/kg; in data set [4] it was 21.6 L/kg; in data set [10], 24 L/kg. Also, the half-inhibitory concentration (IC50) in data set [7] came to 0.51 nM; in [8], 0.69 nM; in data set [9], 5.2 nM.

`COC(=O)C(C)(C)N1CCC(c2cc(-c3ccc(F)cc3Cl)c3ccc(=O)n(-c4c(Cl)cccc4Cl)c3c2)CC1`: the IC50 is 6.7 nM in data set [7], 2.59 nM in [8] and 130 nM in [9].

For `CC(C)(C)N1CCC(c2cc(-c3ccc(F)cc3F)c3ccc(=O)n(-c4c(Cl)cccc4Cl)c3c2)CC1`, the results for the clearance in data set [1], in [14] and in [6] were 11.9 mL/min/kg, 5.5 mL/min/kg and 29.2 mL/min/kg, respectively. In addition, the bioavailability came out at 69.3% in data set [2], 36.2% in data set [15] and 56.5% in data set [5]. Further, the half-life in [12] is 19.8 h; in [3], 9.7 h; in data set [11], 4.13 h. In addition, the Vd was found to be 8.99 L/kg in data set [13], 26.2 L/kg in data set [4] and 3.82 L/kg in data set [10]. Moreover, the results for the IC50 in data set [7], in data set [8] and in data set [9] were 0.14 nM, 1.7 nM and 2.4 nM, respectively.

Take `CC(C)(C)N1CCC(c2cc(-c3ccccc3Cl)c3ccc(=O)n(-c4c(Cl)cccc4Cl)c3c2)CC1`: the IC50 in data set [7] was determined as 0.1 nM; in [8] it was 1 nM; in data set [9], 6.4 nM.

`O=c1ccc2c(-c3ccc(F)cc3Cl)cc(C3CC4CCC(C3)N4)cc2n1-c1c(Cl)cccc1Cl` (stereo not given) came in with a clearance in data set [1] of 37 mL/min/kg. In [2], this compound returned a bioavailability of 13%. Besides, the IC50 stood at 0.45 nM in [7], 0.89 nM in [8] and 14.5 nM in [9]. In addition, the Vd in data set [10] was found to be 6.2 L/kg. In addition, the half-life in [11] is 2.56 h.

Consider `CC(C)(C)N1CCC(Oc2cc(-c3ccccc3Cl)c3ccc(=O)n(-c4c(Cl)cccc4Cl)c3c2)CC1`, for which, in data set [1], the clearance came to 34.1 mL/min/kg. Also, in data set [2], the bioavailability is 32.3%. Also, the IC50 was determined as 1.6 nM in data set [7], 1.8 nM in data set [8] and 13 nM in data set [9]. The Vd in data set [10] is 6.17 L/kg. Further, the half-life in data set [11] was 2.33 h.

Regarding `C[C@H](C(=O)O)N1CCC(c2cc(-c3ccc(F)cc3Cl)c3ccc(=O)n(-c4c(Cl)cccc4Cl)c3c2)CC1`, the concentration for half-maximal inhibition (IC50) is 3.2 nM in data set [7], 3.8 nM in data set [8] and 25 nM in [9].

For the compound `CC(C)(C(=O)O)N1CCC(c2cc(-c3ccc(F)cc3Cl)c3ccc(=O)n(-c4c(Cl)cccc4Cl)c3c2)CC1`, the figures for the 50% inhibitory concentration (IC50) in data set [7], in data set [8] and in data set [9] were 0.84 nM, 3.75 nM and 79.1 nM, respectively.

The compound `CN1C2CCC1CC(c1cc(-c3ccc(F)cc3Cl)c3ccc(=O)n(-c4c(Cl)cccc4Cl)c3c1)C2` (stereo not given) gave a clearance in [1] of 27 mL/min/kg. In data set [2], this compound showed a bioavailability of 30%. In addition, the figures for the concentration for half-maximal inhibition (IC50) in data set [7], in data set [8] and in data set [9] were 0.61 nM, 0.82 nM and 7.71 nM, respectively. Also, the Vd in data set [10] was 6.87 L/kg. Besides, the half-life in data set [11] was 3.12 h.

Take `CC(C)(C)N1CCC(Oc2cc(-c3ccc(F)cc3F)c3ccc(=O)n(-c4c(F)cccc4F)c3c2)CC1`: the half-inhibitory concentration (IC50) came out at 10.5 nM in data set [7], 2.2 nM in data set [8] and 18.4 nM in data set [9].

On to `CC1(C)C=C(c2cc(-c3ccc(F)cc3Cl)c3ccc(=O)n(-c4c(Cl)cccc4Cl)c3c2)CC(C)(C)N1`, for which the clearance in [1] was determined as 30.1 mL/min/kg. The same compound came in with a bioavailability in data set [2] of 36%. In addition, the 50% inhibitory concentration (IC50) in [7] came to 0.26 nM; in [8] it was 3.32 nM; in data set [9] it was 24.2 nM. Further, the Vd in data set [10] stood at 7.32 L/kg. This compound showed a half-life in [11] of 3.17 h.

The compound `CC(C)N1C2CCC1CC(c1cc(-c3ccc(F)cc3Cl)c3ccc(=O)n(-c4c(Cl)cccc4Cl)c3c1)C2` (stereo not given) came in with a clearance in data set [1] of 18 mL/min/kg. Moreover, the bioavailability in [2] is 44%. The values for the IC50 in data set [7], in [8] and in data set [9] were 0.51 nM, 0.99 nM and 8.51 nM, respectively. For the same compound, in data set [10], the Vd was 5.23 L/kg. Besides, the half-life in data set [11] is 3.36 h.

In the case of `CC(C)(C)N1CCC(Oc2cc(-c3ccc(F)cc3Cl)c3ccc(=O)n(-c4c(Cl)cccc4Cl)c3c2)CC1`, the figures for the 50% inhibitory concentration (IC50) in [7], in data set [8] and in [9] were 7.1 nM, 2.4 nM and 16.2 nM, respectively.

Turning to `CC(C)(C)N1CCC(c2cc(-c3ccc(F)cc3Cl)c3ccc(=O)n(-c4c(Cl)cccc4Cl)c3c2)CC1`, the figures for the clearance in [1], in data set [14] and in data set [6] were 14 mL/min/kg, 26.8 mL/min/kg and 52.9 mL/min/kg, respectively. Also, the bioavailability in [2] came out at 47.7%; in data set [15], 83%; in [5], 49%. Moreover, the half-life was 5.59 h in data set [12], 13.6 h in data set [3] and 3.5 h in data set [11]. For the same compound, the Vd is 23.8 L/kg in [13], 52.8 L/kg in data set [4] and 3.84 L/kg in data set [10]. Besides, the IC50 in data set [7] was 0.31 nM; in data set [8] it was 0.27 nM; in data set [9] it was 2.6 nM.

Turning to `CC(C)(C)N1CCC(c2cc3c(ccc(=O)n3-c3c(Cl)cccc3Cl)c(-c3ccccc3Cl)n2)CC1`, the clearance in data set [1] is 25 mL/min/kg; in [14] it was 37.6 mL/min/kg. Moreover, the bioavailability is 66% in data set [2] and 9.35% in [15]. Moreover, the half-life was 5.42 h in [12] and 5.1 h in [11]. Also, the Vd was 15.1 L/kg in [13] and 10.1 L/kg in [10]. In addition, the concentration for half-maximal inhibition (IC50) in [7] was 1.4 nM; in data set [9], 6.8 nM.
